US5298494A, “Monosaccharides having anti-proliferation and anti-inflammatory activity, compositions and uses thereof” (Greenwich Pharmaceuticals Incorporated, priority 1993, dated 1994)
Like-named read-outs stand apart in the source and are kept apart here.

What was measured:
[1] = tested on: T lymphocytes (normal mouse spleen cells) stimulated with ConA; experiment: Mouse Spleen Cell ConA Blastogenesis Assay; type: cell-based, mouse (C57Bl/6); details: for inhibition at 0.001 µg/mL / inhibition at 0.01 µg/mL / inhibition at 0.1 µg/mL / inhibition at 1 µg/mL / inhibition at 2.5 µg/mL / inhibition at 10 µg/mL / inhibition at 25 µg/mL / inhibition at 100 µg/mL: Mus musculus, T-lymphocyte
[2] = tested on: Interleukin 1 (IL-1) production by peritoneal macrophages; experiment: IL-1 Assay: production of interleukin-1 by peritoneal macrophages (thymocyte bioassay); type: cell-based, mouse (C57B1/6); parameters: inhibition: dose or concentration left out as unconfirmed; details: for inhibition at 0.001 µg/mL / inhibition at 0.01 µg/mL / inhibition at 0.1 µg/mL / inhibition at 2.5 µg/mL / inhibition at 10 µg/mL / inhibition at 25 µg/mL / inhibition at 100 µg/mL / inhibition: Mus musculus, Peritoneal macrophage, read-out: % effect on IL-1 production (thymidine uptake by thymocytes)
Description: Interleukin 1 (IL-1) is a potent immunomodulatory cytokine that has a broad range of pro-inflammatory activities. IL-1 is known to be produced by activated accessory cells such as macrophages. Accessory cell production of IL-1 results in the activation and proliferation of T and B lymphocytes. Therefore, by inhibiting macrophage activation and production of IL-1, the activation and proliferation of the cellular effectors of inflammation can be modulated. Compounds of the invention were screened for inhibitory activity in a classical IL-1 assay. Six to 8 week old male C57B1/6 mice were purchased from Harlan Sprague Dawley. Peritoneal macrophages were elicited by the administration to mice of a single intraperitoneal injection of 0.2 ml of complete Freund's adjuvant. After 48 hours, elicited macrophages were removed from the mice by lavage with the use of Hank's balanced salt solution. […] To the macrophage cultures were added various doses of the compounds of the invention and 10 ug/ml of the macrophage activator lipopolysaccharide (to stimulate IL-1 production). Control cultures consisted of macrophages, lipopolysaccharide and culture medium containing various doses of DMSO only. […] The amount of IL-1 produced in the individual wells was determined in a bioassay for IL-1. This involved the removal of thymuses from mice less than 8 weeks of age. Thymocytes were isolated by passing each thymus through a stainless steel mesh screen. […] After 18 hours cells were harvested and radioactive incorporation (as a measure of cell proliferation) was quantitated in a liquid scintillation counter. The students t test was used to determine the significance of the difference between experimental and control values.

[3] = ConA 1 ug/ml, compound 0.01 ug/ml, read-out: % change from control, ConA blastogenic response
[4] = ConA 1 ug/ml, compound 0.1 ug/ml, read-out: % change from control, ConA blastogenic response
[5] = ConA 1 ug/ml, compound 1 ug/ml, read-out: % change from control, ConA blastogenic response
[6] = ConA 1 ug/ml, compound 2.5 ug/ml, read-out: % change from control, ConA blastogenic response
[7] = ConA 1 ug/ml, compound 10 ug/ml, read-out: % change from control, ConA blastogenic response
[8] = ConA 1 ug/ml, compound 25 ug/ml, read-out: % change from control, ConA blastogenic response
[9] = ConA 1 ug/ml, compound 100 ug/ml, read-out: % change from control, ConA blastogenic response
[10] = ConA 4 ug/ml, compound 0.01 ug/ml, read-out: % change from control, ConA blastogenic response
[11] = ConA 4 ug/ml, compound 0.1 ug/ml, read-out: % change from control, ConA blastogenic response
[12] = ConA 4 ug/ml, compound 1 ug/ml, read-out: % change from control, ConA blastogenic response
[13] = ConA 4 ug/ml, compound 2.5 ug/ml, read-out: % change from control, ConA blastogenic response
[14] = ConA 4 ug/ml, compound 10 ug/ml, read-out: % change from control, ConA blastogenic response
[15] = ConA 4 ug/ml, compound 25 ug/ml, read-out: % change from control, ConA blastogenic response
[16] = ConA 4 ug/ml, compound 100 ug/ml, read-out: % change from control, ConA blastogenic response

Q: How did the “effect on ConA T lymphocyte proliferation in words” value [1] turn out when CCCCCCCOC[C@H]1O[C@@]2(OC)COC(C)(C)O[C@H]2[C@@H]1O [Ia, methyl 1,3-O-isopropylidene-6-O-heptyl-α-D-fructofuranoside] was run?
A: dose-dependent, significant, inhibitory effect

Q: What about the “Blastogenic response of normal spleen cells to Con-A” value (“Blastogenic response” below) ([1]; ConA 1 ug/ml, compound 0.001 ug/ml) of the same compound?
A: 52.6 ± 3.8 × 10^-3 cpm

Q: And the “Blastogenic response” value ([1]; ConA 1 ug/ml, compound 0.01 ug/ml)?
A: 45.1 ± 4.9 × 10^-3 cpm

Q: And the “Blastogenic response” value ([1]; ConA 1 ug/ml, compound 0.1 ug/ml)?
A: 71.1 ± 4.9 × 10^-3 cpm

Q: What about the “Blastogenic response” value ([1]; ConA 1 ug/ml, compound 1 ug/ml) of the same compound?
A: 55.7 ± 8.4 × 10^-3 cpm

Q: And the “Blastogenic response” value ([1]; ConA 1 ug/ml, compound 2.5 ug/ml)?
A: 47.2 ± 7.0 × 10^-3 cpm

Q: And the “Blastogenic response” value ([1]; ConA 1 ug/ml, compound 10 ug/ml)?
A: 26.5 ± 8.8 × 10^-3 cpm

Q: And the “Blastogenic response” value ([1]; ConA 1 ug/ml, compound 25 ug/ml)?
A: 1.5 ± 0.4 × 10^-3 cpm

Q: What about the “Blastogenic response” value ([1]; ConA 1 ug/ml, compound 100 ug/ml) of the same compound?
A: 0.6 ± 0.1 × 10^-3 cpm

Q: And the “Blastogenic response” value ([1]; ConA 4 ug/ml, compound 0.001 ug/ml)?
A: 68.7 ± 5.0 × 10^-3 cpm

Q: What about the “Blastogenic response” value ([1]; ConA 4 ug/ml, compound 0.01 ug/ml) of the same compound?
A: 72.8 ± 0.8 × 10^-3 cpm

Q: What about the “Blastogenic response” value ([1]; ConA 4 ug/ml, compound 0.1 ug/ml) of the same compound?
A: 88.8 ± 2.4 × 10^-3 cpm

Q: And the “Blastogenic response” value ([1]; ConA 4 ug/ml, compound 1 ug/ml)?
A: 77.0 ± 4.2 × 10^-3 cpm

Q: And the “Blastogenic response” value ([1]; ConA 4 ug/ml, compound 2.5 ug/ml)?
A: 63.8 ± 2.3 × 10^-3 cpm

Q: And the “Blastogenic response” value ([1]; ConA 4 ug/ml, compound 10 ug/ml)?
A: 50.2 ± 3.4 × 10^-3 cpm

Q: And the “Blastogenic response” value ([1]; ConA 4 ug/ml, compound 25 ug/ml)?
A: 13.7 ± 2.0 × 10^-3 cpm

Q: And the “Blastogenic response” value ([1]; ConA 4 ug/ml, compound 100 ug/ml)?
A: 6.3 ± 2.2 × 10^-3 cpm

Q: And the inhibition at 0.001 µg/mL ([1]; ConA 1 ug/ml, compound 0.001 ug/ml, read-out: % change from control, ConA blastogenic response)?
A: 5%

Q: What about the inhibition at 0.01 µg/mL [1, 3] of the same compound?
A: 19%

Q: And the inhibition at 0.1 µg/mL [1, 4]?
A: -28%

Q: What about the inhibition at 1 µg/mL [1, 5] of the same compound?
A: -1%

Q: And the inhibition at 2.5 µg/mL [1, 6]?
A: 15%

Q: What about the inhibition at 10 µg/mL [1, 7] of the same compound?
A: 52%

Q: What about the inhibition at 25 µg/mL [1, 8] of the same compound?
A: 97%

Q: And the inhibition at 100 µg/mL [1, 9]?
A: 99%

Q: And the inhibition at 0.001 µg/mL ([1]; ConA 4 ug/ml, compound 0.001 ug/ml, read-out: % change from control, ConA blastogenic response)?
A: 19%

Q: And the inhibition at 0.01 µg/mL [1, 10]?
A: 14%

Q: What about the inhibition at 0.1 µg/mL [1, 11] of the same compound?
A: -5%

Q: What about the inhibition at 1 µg/mL [1, 12] of the same compound?
A: 9%

Q: And the inhibition at 2.5 µg/mL [1, 13]?
A: 25%

Q: And the inhibition at 10 µg/mL [1, 14]?
A: 41%

Q: And the inhibition at 25 µg/mL [1, 15]?
A: 84%

Q: And the inhibition at 100 µg/mL [1, 16]?
A: 93%

Q: What about the “^3 H-Thymidine uptake by thymocytes” value ([2]; 0.001 ug/ml) of the same compound?
A: 10,550 cpm

Q: And the “^3 H-Thymidine uptake by thymocytes” value ([2]; 0.01 ug/ml)?
A: 10,960 cpm

Q: What about the “^3 H-Thymidine uptake by thymocytes” value ([2]; 0.1 ug/ml) of the same compound?
A: 10,265 ± 227 cpm

Q: What about the “^3 H-Thymidine uptake by thymocytes” value ([2]; 1 ug/ml) of the same compound?
A: 10,777 ± 1,903 cpm

Q: What about the “^3 H-Thymidine uptake by thymocytes” value ([2]; 2.5 ug/ml) of the same compound?
A: 8,250 ± 705 cpm

Q: What about the “^3 H-Thymidine uptake by thymocytes” value ([2]; 10 ug/ml) of the same compound?
A: 4,970 ± 410 cpm

Q: And the “^3 H-Thymidine uptake by thymocytes” value ([2]; 25 ug/ml)?
A: 3,210 ± 149 cpm

Q: And the “^3 H-Thymidine uptake by thymocytes” value ([2]; 100 ug/ml)?
A: 2,215 ± 643 cpm

Q: And the inhibition at 0.001 µg/mL ([2]; 0.001 ug/ml)?
A: 3%

Q: What about the inhibition at 0.01 µg/mL ([2]; 0.01 ug/ml) of the same compound?
A: -1%

Q: And the inhibition at 0.1 µg/mL ([2]; 0.1 ug/ml)?
A: 8%

Q: What about the inhibition at 2.5 µg/mL ([2]; 2.5 ug/ml) of the same compound?
A: 28%

Q: What about the inhibition at 10 µg/mL ([2]; 10 ug/ml) of the same compound?
A: 51%

Q: And the inhibition at 25 µg/mL ([2]; 25 ug/ml)?
A: 63%

Q: And the inhibition at 100 µg/mL ([2]; 100 ug/ml)?
A: 75%

Q: And the inhibition [2]?
A: 2%

Q: For CCCCC/C=C/COC[C@H]1O[C@@]2(OC)COC(C)(C)O[C@H]2[C@@H]1OC/C=C/CCCCC [Ie, methyl 1,3-O-isopropylidene-4,6-di-O-(trans,2-octenyl)-α-D-fructofuranoside], which inhibition at 0.01 µg/mL ([1]; ConA 1 ug/ml, 0.01 ug/ml, read-out: % Change from Control (Table II)) is on record?
A: 2%

Q: What about the inhibition at 0.01 µg/mL [1, 3] of the same compound?
A: 22%

Q: And the inhibition at 0.1 µg/mL [1, 4]?
A: 18%

Q: And the inhibition at 1 µg/mL [1, 5]?
A: 34%

Q: What about the inhibition at 2.5 µg/mL [1, 6] of the same compound?
A: 72%

Q: And the inhibition at 10 µg/mL [1, 7]?
A: 91%

Q: What about the inhibition at 25 µg/mL [1, 8] of the same compound?
A: 99%

Q: What about the inhibition at 100 µg/mL [1, 9] of the same compound?
A: 100%

Q: What about the inhibition at 0.01 µg/mL ([1]; ConA 4 ug/ml, 0.01 ug/ml, read-out: % Change from Control (Table II)) of the same compound?
A: 8%

Q: And the inhibition at 0.01 µg/mL [1, 10]?
A: 4%

Q: And the inhibition at 0.1 µg/mL [1, 11]?
A: 9%

Q: What about the inhibition at 1 µg/mL [1, 12] of the same compound?
A: 59%

Q: What about the inhibition at 2.5 µg/mL [1, 13] of the same compound?
A: 79%

Q: What about the inhibition at 10 µg/mL [1, 14] of the same compound?
A: 92%

Q: What about the inhibition at 25 µg/mL [1, 15] of the same compound?
A: 99%

Q: What about the inhibition at 100 µg/mL [1, 16] of the same compound?
A: 100%

Q: And the “^3 H-Thymidine uptake by thymocytes” value ([2]; 0.001 ug/ml)?
A: 12,713 ± 866 cpm

Q: What about the “^3 H-Thymidine uptake by thymocytes” value ([2]; 0.01 ug/ml) of the same compound?
A: 12,040 cpm

Q: What about the “^3 H-Thymidine uptake by thymocytes” value ([2]; 0.1 ug/ml) of the same compound?
A: 11,047 ± 702 cpm

Q: And the “^3 H-Thymidine uptake by thymocytes” value ([2]; 1 ug/ml)?
A: 9,710 ± 1,323 cpm

Q: What about the “^3 H-Thymidine uptake by thymocytes” value ([2]; 2.5 ug/ml) of the same compound?
A: 7,000 ± 686 cpm

Q: What about the “^3 H-Thymidine uptake by thymocytes” value ([2]; 10 ug/ml) of the same compound?
A: 6,100 ± 775 cpm

Q: What about the “^3 H-Thymidine uptake by thymocytes” value ([2]; 25 ug/ml) of the same compound?
A: 5,300 ± 1,405 cpm

Q: What about the “^3 H-Thymidine uptake by thymocytes” value ([2]; 100 ug/ml) of the same compound?
A: 4,300 ± 1,100 cpm

Q: What about the inhibition at 0.001 µg/mL ([2]; 0.001 ug/ml) of the same compound?
A: -17%

Q: And the inhibition at 0.01 µg/mL ([2]; 0.01 ug/ml)?
A: -11%

Q: What about the inhibition at 0.1 µg/mL ([2]; 0.1 ug/ml) of the same compound?
A: 1%

Q: What about the inhibition at 2.5 µg/mL ([2]; 2.5 ug/ml) of the same compound?
A: 30%

Q: What about the inhibition at 10 µg/mL ([2]; 10 ug/ml) of the same compound?
A: 40%

Q: What about the inhibition at 25 µg/mL ([2]; 25 ug/ml) of the same compound?
A: 40%

Q: And the inhibition at 100 µg/mL ([2]; 100 ug/ml)?
A: 51%

Q: What about the inhibition [2] of the same compound?
A: 12%
